Test results as given in patent US20250171744A1, “METHODS OF REPROGRAMMING SOMATIC CELLS AND MATERIALS RELATED THERETO” (CITY OF HOPE, priority 2019, published 2025).

System: FPGS^ko cells
Test: Chemical complementation (nutrient supplementation) of FPGS mutants (FIG. 14)
Format: cell-based, human
Protocol: The growth medium was supplemented with 1 and 2× essential amino acids (EAAs), and cells were grown for […] (A2-A3). Additionally, to check the growth behavior of the mutant in a different basal medium, regular DMEM and IMDM with 1×NEAAs were tested. To rescue the phenotype of FPGS^ko, 5-CHO-THF (1 mM) with sodium hypoxanthine (10 mM) and thymidine (1.6 mM) mixture (HT; Thermo Fisher Scientific) was exogenously applied to IMDM, respectively (A5, A6), and compared with the FPGS^ko cells (A1) and WT cells […] grown with only solvent as a control. […] All the experiments were carried out in triplicate and cell proliferation was measured using a Cellometer. The number of cells for each cell line is compared with the number of colonies for parental 293T cells. Error bars indicate means±SE (n=4). *P<0.05, **P<0.001.
Chemical complementation assays of FPGS mutants: Cells were maintained as monolayers in DMEM with Gluta-Max (Corning) supplemented with 10% FBS at 37° C. in a 5% CO2 atmosphere. To supplement the growth medium with amino acids, 1× and 2× doses of essential amino acids (Thermo Fisher Scientific) were added in the medium and the cells were grown as previously described for 5 days. […] All the experiments were carried out in triplicate, and cell proliferation was measured using a Cellometer Auto T4 Counting Chamber (Nexcelom Bioscience, Lawrence, MA, USA). […]

Nc1nc2c(c(=O)[nH]1)N(C=O)[C@@H](CNc1ccc(C(=O)N[C@@H](CCC(=O)O)C(=O)O)cc1)CN2 [5-CHO-THF, 6S-5-formyl-5,6,7,8-tetrahydrofolic acid]
cell growth of FPGS^ko mutant (IMDM supplemented with 1 mM 5-CHO-THF and 1×NEAAs): substantial increases in cell growth
growth rate of FPGS^ko mutant (IMDM with 1 mM 5-CHO-THF, 1×NEAAs, hypoxanthine (10 mM) and thymidine (1.6 mM)): almost full restoration of growth rate
